Data on 8 compounds can be found in PubChem BioAssay (NCI).

Experiment in all cases: DTP human tumour cell line panel, 48 h
In assay [1] the test system is CCRF-CEM leukemia.
In assay [2] the test system is PC-3 prostate.
The subject of assay [3] is SF-295 CNS.
Assay [4] relates to KM12 colon.
Assay [5] has as its system HCT-15 colon.
Assay [6] relates to A498 renal.
Assay [7] deals with SF-268 CNS.
Assay [8] has as its system TK-10 renal.
Assay [9] concerns CAKI-1 renal.
The test system of assay [10] is MDA-MB-231 breast.
In assay [11] the test system is NCI/ADR-RES ovarian.
Assay [12] has as its system HL-60(TB) leukemia.
The subject of assay [13] is SF-539 CNS.
Assay [14] relates to NCI-H226 lung.
Assay [15] concerns 786-0 renal.
Assay [16] has as its system A549 NSCLC.
The test system of assay [17] is SK-MEL-28 melanoma.
In assay [18] the test system is BT-549 breast.
The subject of assay [19] is SK-MEL-2 melanoma.
The subject of assay [20] is SK-OV-3 ovarian.

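Cells were grown in 96-well plates and exposed to each compound for 48 hours at five concentrations; endpoints were interpolated linearly between bracketing concentrations, or set to the highest concentration if not reached. TGI: concentration producing complete growth inhibition.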

In general, TGI refers to the concentration at which net growth stops. A lower TGI goes with more potent growth arrest. As for `N#CC1=C(S)N(C2OC(CO)C(O)C(O)C2O)C(c2ccccc2)=CC1c1ccccc1` (stereo not given), the TGI in assay [1], in [2], in assay [3], in assay [4], in [5] and in assay [6] was more than 100 µM throughout. Further, the TGI in assay [7], in assay [8], in assay [9], in assay [10], in assay [11] and in assay [12] was more than 100 µM in each case. The TGI in assay [13], in assay [14], in assay [15], in [16], in assay [17] and in [18] was more than 100 µM throughout.
Turning to `CC(NC(=O)C(N)Cc1ccc(O)cn1)C(=O)O` (stereo not given), the TGI in [1], in assay [2], in assay [3], in assay [4], in assay [5] and in [6] was more than 100 µM each time. Besides, the TGI in [7], in [8], in assay [9], in [10], in assay [11] and in [12] was more than 100 µM each time. Moreover, the TGI in assay [13], in assay [14], in assay [15], in [16], in assay [17] and in assay [18] was more than 100 µM throughout.
For the compound `O=C(Cn1cc(-c2ccccc2)nn1)NC1CCCC1`, the TGI in assay [1], in assay [2], in assay [3], in assay [4], in assay [5] and in assay [7] was more than 100 µM throughout. The total growth inhibition concentration (TGI) in assay [8], in [9], in [10], in [11], in assay [12] and in assay [13] was more than 100 µM throughout. In addition, the TGI in [19], in [14], in assay [15], in assay [16], in assay [17] and in assay [18] was more than 100 µM throughout.
Take `O=C1CC(CC(O)C(O)C(O)CO)CC(=O)N1` (stereo not given): the TGI in assay [1], in assay [2], in assay [3], in assay [4], in assay [5] and in assay [6] was more than 100 µM in each case. The TGI in assay [7], in assay [9], in assay [10], in [11], in assay [12] and in assay [13] was more than 100 µM each time. Besides, the concentration for total growth inhibition (TGI) in assay [14], in [15], in assay [16], in assay [17] and in [18] was more than 100 µM in each case.
In the case of `CCOC(=O)C(NC(=O)c1ccccc1)(Nc1ccc(S(=O)(=O)Nc2nc(C)cc(C)n2)cc1)C(F)(F)F` (stereo not given), the TGI in [1], in [2], in [3], in assay [4], in assay [5] and in assay [7] was more than 100 µM throughout. Moreover, the concentration for total growth inhibition (TGI) in assay [8], in assay [9], in assay [10], in [11], in [12] and in assay [13] was more than 100 µM in each case. Moreover, the TGI in assay [19], in assay [20], in assay [14], in [15], in [16] and in assay [17] was more than 100 µM in each case. Further, the TGI in assay [18] was more than 100 µM.
On to `CN(c1ccccc1)S(=O)(=O)c1ccccc1[N+](=O)[O-]`, for which the TGI in assay [1], in [2], in assay [3], in assay [4], in assay [5] and in assay [7] was more than 100 µM throughout. The TGI in assay [8], in [9], in assay [10], in assay [11], in [12] and in assay [13] was more than 100 µM throughout. Moreover, the TGI in assay [19], in assay [20], in assay [14], in assay [15], in assay [16] and in [17] was more than 100 µM in each case. This compound returned a TGI in assay [18] of more than 100 µM.
In the case of `COC(=O)C(=O)c1c2ccccc2n2ccc3c4ccccc4[nH]c3c12`, the concentration for total growth inhibition (TGI) in assay [1], in assay [2], in [3], in [4], in assay [5] and in assay [7] was more than 10 µM throughout. The TGI in assay [8], in [9], in assay [10], in assay [11], in assay [12] and in assay [13] was more than 10 µM each time. The concentration for total growth inhibition (TGI) in [19], in [20], in assay [14], in assay [15], in assay [16] and in [18] was more than 10 µM in each case.
Turning to `C=CC1ON(C)CCc2cc(OC)c(OC)cc21` (stereo not given), the TGI in assay [1], in assay [2], in [3], in assay [4], in assay [5] and in assay [6] was more than 100 µM each time. Also, the concentration for total growth inhibition (TGI) in [7], in [8], in assay [9], in [10], in assay [11] and in assay [12] was more than 100 µM each time. The concentration for total growth inhibition (TGI) in assay [13], in [14], in [15], in assay [16], in assay [17] and in [18] was more than 100 µM each time.
